Results as given in publication PMC4621900, “Ebselen inhibits QSOX1 enzymatic activity and suppresses invasion of pancreatic and renal cancer cell lines” (Oncotarget, 2015).

Key:
glucose oxidase (GOx) = glucose oxidase (GOx) (Aspergillus niger, UniProt P13006); assay: luminescent (ROS-Glo) H2O2-detection enzyme assay, counter-screen; format: biochemical
[1] = target: T1, Quiescin sulfhydryl oxidase 1 (QSOX1) (Homo sapiens, UniProt O00391); assay: intact-protein LC-ESI-MS of covalent adducts and maleimide protection assay; IC50 from purified-enzyme luminescent H2O2 assay, confirmed by HVA fluorescence assay; format: biochemical
T1 construct: amino acids 33–546 of QSOX1-S, N-terminal poly-histidine tag (rQSOX1)
T1 sequence (O00391 33-546): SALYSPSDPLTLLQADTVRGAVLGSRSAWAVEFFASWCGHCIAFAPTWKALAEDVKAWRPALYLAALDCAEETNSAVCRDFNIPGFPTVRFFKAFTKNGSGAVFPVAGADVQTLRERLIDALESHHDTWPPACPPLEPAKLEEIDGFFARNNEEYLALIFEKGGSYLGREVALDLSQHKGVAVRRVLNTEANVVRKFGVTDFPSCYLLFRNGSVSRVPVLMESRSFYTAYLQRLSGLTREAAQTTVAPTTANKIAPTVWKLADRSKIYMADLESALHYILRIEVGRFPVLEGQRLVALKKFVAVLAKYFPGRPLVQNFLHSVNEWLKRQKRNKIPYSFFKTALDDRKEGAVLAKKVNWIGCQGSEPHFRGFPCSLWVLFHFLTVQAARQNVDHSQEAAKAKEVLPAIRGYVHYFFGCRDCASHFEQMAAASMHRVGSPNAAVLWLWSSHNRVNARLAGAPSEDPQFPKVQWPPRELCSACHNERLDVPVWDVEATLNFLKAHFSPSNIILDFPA

glucose oxidase (GOx), sequence (P13006 17-605): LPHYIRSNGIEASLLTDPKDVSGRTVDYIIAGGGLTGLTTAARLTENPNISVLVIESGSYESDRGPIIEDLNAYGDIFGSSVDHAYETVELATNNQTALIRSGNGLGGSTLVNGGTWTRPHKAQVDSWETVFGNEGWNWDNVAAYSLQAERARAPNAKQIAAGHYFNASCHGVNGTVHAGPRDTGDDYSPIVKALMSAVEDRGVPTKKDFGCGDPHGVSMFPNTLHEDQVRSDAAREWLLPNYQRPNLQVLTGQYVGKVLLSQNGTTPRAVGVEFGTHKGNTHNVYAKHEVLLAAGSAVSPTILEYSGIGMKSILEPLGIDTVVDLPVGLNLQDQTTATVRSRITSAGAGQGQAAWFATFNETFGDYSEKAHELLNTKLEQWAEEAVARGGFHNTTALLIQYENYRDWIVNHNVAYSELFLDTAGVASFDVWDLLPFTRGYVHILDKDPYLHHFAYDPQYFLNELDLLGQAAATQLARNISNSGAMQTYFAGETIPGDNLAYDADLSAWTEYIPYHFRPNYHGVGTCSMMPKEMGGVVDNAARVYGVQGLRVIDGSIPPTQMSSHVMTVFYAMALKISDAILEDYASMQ

`O=c1c2ccccc2[se]n1-c1ccccc1` [ebselen, 2-phenyl-1,2-benzisoselenazol-3(2H)-one] showed an IC50 (glucose oxidase (GOx)) of 20.5 µM and an IC50 [1] of 5.4 µM.
